For this assay, the target named is Dual leucine zipper kinase (MAP3K12) (Homo sapiens). As to the kind of experiment: Binding affinity to DLK (unknown origin) assessed as inhibition constant.

Among the data in BindingDB's records for doi:10.1016/j.ejmech.2023.115404 (Southwest Jiaotong University, 2023) are Ki values, retold here.

The term Ki denotes a dissociation constant, usually derived from enzyme kinetics or from competition with a known ligand. In the case of `CC(=O)N1CCC(c2cc(Nc3cc(C(F)(F)F)ccn3)nc(N3CCC(F)(F)C3)n2)CC1`, the Ki came out at 33 nM.
As for `CC(C)n1nc(Nc2cc(C(F)(F)F)ccn2)cc1C1CCNCC1`, the Ki amounted to 145 nM.
